# Test results published in US20240317721A1, “PYRAZOLYL DERIVATIVES AS INHIBITORS OF THE KRAS MUTANT PROTEIN” (NOVARTIS AG, priority 2021, published 2024).
# pIC50: −log10 of the molar value.
# Target: KRasG12C (M1-K169, biotinylated on the N-terminus) (Homo sapiens (Human), UniProt P01116, G12C)
# Assay: Covalent competition assay: scintillation proximity assay (SPA) quantifying covalent modification of KRASG12C
# Type: binding
# Conditions: competition with radiolabeled covalent probe (Compound B/Compound A), 2 hours incubation, 10 nM KRasG12C
# How it was run: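 Test compounds compete with a radiolabeled covalent probe for modification of N-terminally biotinylated KRasG12C(M1-K169):GDP, final 10 nM protein, 25 nM radio-ligand, 475 nM unlabelled ligand, 2 h with agitation in 20 mM Tris-HCl pH 7.5, 150 mM NaCl, 0.1 mM MgCl2, 0.01% Tween-20.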
row,pIC50,Structure (SMILES)
1,7.85,"C=CC(=O)N1CC2(CC(n3nc(N4CCN(C5CC6(COC6)C5)CC45CCC5)c(-c4c(Cl)c(C)cc5[nH]ncc45)c3C)C2)C1 (single isomer, unassigned) [Example 135b, 1-(6-(3-(8-(2-oxaspiro[3.3]heptan-6-yl)-5,8-diazaspiro[3.5]nonan-5-yl)-4-(5-chloro-6-methyl-1H-indazol-4-yl)-5-methyl-1H-pyrazol-1-yl)-2-azaspiro[3.3]heptan-2-yl)prop-2-en-1-one]"
2,6.07,"C=CC(=O)N1CC2(CC(n3nc(N4CCN(C5COC5)C5COCC54)c(-c4c(Cl)c(C)cc5[nH]ncc45)c3C)C2)C1 (single isomer, unassigned) [Example 136a, 1-(6-(4-(5-chloro-6-methyl-1H-indazol-4-yl)-5-methyl-3-((4aS*,7aS*)-4-(oxetan-3-yl)hexahydrofuro[3,4-b]pyrazin-1(2H)-yl)-1H-pyrazol-1-yl)-2-azaspiro[3.3]heptan-2-yl)prop-2-en-1-one]"
3,6.01,"C=CC(=O)N1CC2(CC(n3nc(N4CCN(C5COC5)C5COCC54)c(-c4c(Cl)c(C)cc5[nH]ncc45)c3C)C2)C1 (single isomer, unassigned) [Example 137b, 1-(6-(4-(5-chloro-6-methyl-1H-indazol-4-yl)-5-methyl-3-((4aS*,7aS*)-4-(oxetan-3-yl)hexahydrofuro[3,4-b]pyrazin-1(2H)-yl)-1H-pyrazol-1-yl)-2-azaspiro[3.3]heptan-2-yl)prop-2-en-1-one]"
4,< 5.30,"C/C=C/C(=O)N1CC2(CC(n3nc(N4CCN(C5COC5)CC45CCC5)c(-c4c(Cl)c(C)cc5[nH]ncc45)c3C)C2)C1 (single isomer, unassigned) [Example 138a, (E)-1-(6-(4-(5-chloro-6-methyl-1H-indazol-4-yl)-5-methyl-3-(8-(oxetan-3-yl)-5,8-diazaspiro[3.5]nonan-5-yl)-1H-pyrazol-1-yl)-2-azaspiro[3.3]heptan-2-yl)but-2-en-1-one]"
5,5.56,"C/C=C/C(=O)N1CC2(CC(n3nc(N4CCN(C5COC5)CC45CCC5)c(-c4c(Cl)c(C)cc5[nH]ncc45)c3C)C2)C1 (single isomer, unassigned) [Example 138b, (E)-1-(6-(4-(5-chloro-6-methyl-1H-indazol-4-yl)-5-methyl-3-(8-(oxetan-3-yl)-5,8-diazaspiro[3.5]nonan-5-yl)-1H-pyrazol-1-yl)-2-azaspiro[3.3]heptan-2-yl)but-2-en-1-one]"
6,6.01,"C=CC(=O)N1CC2(CC(n3nc(N4CCN(C5CCOCC5)CC4(C)C)c(-c4c(Cl)c(Cl)cc5[nH]ncc45)c3C)C2)C1 (single isomer, unassigned) [Example 140a, 1-(6-(4-(5,6-dichloro-1H-indazol-4-yl)-3-(2,2-dimethyl-4-(tetrahydro-2H-pyran-4-yl)piperazin-1-yl)-5-methyl-1H-pyrazol-1-yl)-2-azaspiro[3.3]heptan-2-yl)prop-2-en-1-one]"
7,7.74,"C=CC(=O)N1CC2(CC(n3nc(N4CCN(C5CCOCC5)CC4(C)C)c(-c4c(Cl)c(Cl)cc5[nH]ncc45)c3C)C2)C1 (single isomer, unassigned) [Example 140b, 1-(6-(4-(5,6-dichloro-1H-indazol-4-yl)-3-(2,2-dimethyl-4-(tetrahydro-2H-pyran-4-yl)piperazin-1-yl)-5-methyl-1H-pyrazol-1-yl)-2-azaspiro[3.3]heptan-2-yl)prop-2-en-1-one]"
8,6.98,"C=CC(=O)N1CC2(CC(n3nc(N4CCN(C5COC5)CC45CCOC5)c(-c4c(Cl)c(C)cc5[nH]ncc45)c3C)C2)C1 (single isomer, unassigned) [Example 141b, 1-(6-(4-(5-chloro-6-methyl-1H-indazol-4-yl)-5-methyl-3-(9-(oxetan-3-yl)-2-oxa-6,9-diazaspiro[4.5]decan-6-yl)-1H-pyrazol-1-yl)-2-azaspiro[3.3]heptan-2-yl)prop-2-en-1-one]"
9,6.69,"C=CC(=O)N1CC2(CC(n3nc(N4CCN(C5COC5)CC45CCOC5)c(-c4c(Cl)c(C)cc5[nH]ncc45)c3C)C2)C1 (single isomer, unassigned) [Example 142a, 1-(6-(4-(5-chloro-6-methyl-1H-indazol-4-yl)-5-methyl-3-(9-(oxetan-3-yl)-2-oxa-6,9-diazaspiro[4.5]decan-6-yl)-1H-pyrazol-1-yl)-2-azaspiro[3.3]heptan-2-yl)prop-2-en-1-one]"
10,< 5.30,"C=CC(=O)N1CC2(CC(n3nc(N4CCN(C5COC5)C[C@@]4(C)CC)c(-c4c(Cl)c(C)cc5[nH]ncc45)c3C)C2)C1 (single isomer, unassigned) [Example 143a]"
11,7.41,"C=CC(=O)N1CC2(CC(n3nc(N4CCN(C5COC5)C[C@@]4(C)CC)c(-c4c(Cl)c(C)cc5[nH]ncc45)c3C)C2)C1 (single isomer, unassigned) [Example 143b]"
12,< 5.30,"C=CC(=O)N1CC2(CC(n3nc(N4CCN(C5COC5)CC45CCCC5)c(-c4c(Cl)c(C)cc5[nH]ncc45)c3C)C2)C1 (single isomer, unassigned) [Example 144a, 1-(6-(4-(5-chloro-6-methyl-1H-indazol-4-yl)-5-methyl-3-(9-(oxetan-3-yl)-6,9-diazaspiro[4.5]decan-6-yl)-1H-pyrazol-1-yl)-2-azaspiro[3.3]heptan-2-yl)prop-2-en-1-one]"
13,8.00,"C=CC(=O)N1CC2(CC(n3nc(N4CCN(C5COC5)CC45CCCC5)c(-c4c(Cl)c(C)cc5[nH]ncc45)c3C)C2)C1 (single isomer, unassigned) [Example 144b, 1-(6-(4-(5-chloro-6-methyl-1H-indazol-4-yl)-5-methyl-3-(9-(oxetan-3-yl)-6,9-diazaspiro[4.5]decan-6-yl)-1H-pyrazol-1-yl)-2-azaspiro[3.3]heptan-2-yl)prop-2-en-1-one]"
14,5.37,"C=CC(=O)N1CC2(CC(n3nc(N4CCN(C5CCOCC5)CC45CCC5)c(-c4c(Cl)c(Cl)cc5[nH]ncc45)c3C)C2)C1 (single isomer, unassigned) [Example 145a, 1-(6-(4-(5,6-dichloro-1H-indazol-4-yl)-5-methyl-3-(8-(tetrahydro-2H-pyran-4-yl)-5,8-diazaspiro[3.5]nonan-5-yl)-1H-pyrazol-1-yl)-2-azaspiro[3.3]heptan-2-yl)prop-2-en-1-one]"
15,7.92,"C=CC(=O)N1CC2(CC(n3nc(N4CCN(C5CCOCC5)CC45CCC5)c(-c4c(Cl)c(Cl)cc5[nH]ncc45)c3C)C2)C1 (single isomer, unassigned) [Example 145b, 1-(6-(4-(5,6-dichloro-1H-indazol-4-yl)-5-methyl-3-(8-(tetrahydro-2H-pyran-4-yl)-5,8-diazaspiro[3.5]nonan-5-yl)-1H-pyrazol-1-yl)-2-azaspiro[3.3]heptan-2-yl)prop-2-en-1-one]"
16,< 5.30,"C=CC(=O)N1CC2(CC(n3nc(N4CCN(C5CCOCC5)C[C@@]4(C)C(F)F)c(-c4c(Cl)c(C)cc5[nH]ncc45)c3C)C2)C1 (single isomer, unassigned) [Example 146a]"
17,7.51,"C=CC(=O)N1CC2(CC(n3nc(N4CCN(C5CCOCC5)C[C@@]4(C)C(F)F)c(-c4c(Cl)c(C)cc5[nH]ncc45)c3C)C2)C1 (single isomer, unassigned) [Example 146b]"
18,8.10,"C=CC(=O)N1CC2(CC(n3nc(N4CCN(C5COC5)C[C@]4(C)COC)c(-c4c(Cl)c(C)cc5[nH]ncc45)c3C)C2)C1 (single isomer, unassigned) [Example 147a]"
19,6.03,"C=CC(=O)N1CC2(CC(n3nc(N4CCN(C5COC5)C[C@]4(C)COC)c(-c4c(Cl)c(C)cc5[nH]ncc45)c3C)C2)C1 (single isomer, unassigned) [Example 147b]"
20,< 5.30,"C=CC(=O)N1CC2(CC(n3nc(N4CCN(C5COC5)C[C@@]4(C)COC)c(-c4c(Cl)c(C)cc5[nH]ncc45)c3C)C2)C1 (single isomer, unassigned) [Example 148a]"
21,6.53,"C=CC(=O)N1CC2(CC(n3nc(N4CCN(C5COC5)C[C@@]4(C)COC)c(-c4c(Cl)c(C)cc5[nH]ncc45)c3C)C2)C1 (single isomer, unassigned) [Example 148b]"
22,6.12,"C=CC(=O)N1CC2(CC(n3nc(N4CCN(C5CCOCC5)C[C@]4(C)COC)c(-c4c(Cl)c(C)cc5[nH]ncc45)c3C)C2)C1 (single isomer, unassigned) [Example 149a]"
23,8.05,"C=CC(=O)N1CC2(CC(n3nc(N4CCN(C5CCOCC5)C[C@]4(C)COC)c(-c4c(Cl)c(C)cc5[nH]ncc45)c3C)C2)C1 (single isomer, unassigned) [Example 149b]"
24,6.60,"C=CC(=O)N1CC2(CC(n3nc(N4CCN(C5CCOCC5)C[C@]4(C)COC)c(-c4c(Cl)c(Cl)cc5[nH]ncc45)c3C)C2)C1 (single isomer, unassigned) [Example 150a]"
25,> 8.30,"C=CC(=O)N1CC2(CC(n3nc(N4CCN(C5CCOCC5)C[C@]4(C)COC)c(-c4c(Cl)c(Cl)cc5[nH]ncc45)c3C)C2)C1 (single isomer, unassigned) [Example 150b]"
26,7.34,"C=CC(=O)N1CC2(CC(n3nc(N4CCN(C5CCOCC5)C[C@]4(C)C(F)F)c(-c4c(Cl)c(C)cc5[nH]ncc45)c3C)C2)C1 (single isomer, unassigned) [Example 151a]"
27,< 5.30,"C=CC(=O)N1CC2(CC(n3nc(N4CCN(C5CCOCC5)C[C@]4(C)C(F)F)c(-c4c(Cl)c(C)cc5[nH]ncc45)c3C)C2)C1 (single isomer, unassigned) [Example 151b]"
28,< 5.30,"C=CC(=O)N1CC2(CC(n3nc(N4CCN(C5COC5)CC4(CC)CC)c(-c4c(Cl)c(C)cc5[nH]ncc45)c3C)C2)C1 (single isomer, unassigned) [Example 152a, 1-(6-(4-(5-chloro-6-methyl-1H-indazol-4-yl)-3-(2,2-diethyl-4-(oxetan-3-yl)piperazin-1-yl)-5-methyl-1H-pyrazol-1-yl)-2-azaspiro[3.3]heptan-2-yl)prop-2-en-1-one]"
